Test results published in the supplement of paper PMC7224384.

Assays:
[1] = tested on: MDA-MB-453; test: drug sensitivity score (DSS), in combination with BLU9931 (DSS (weighted AUC score)); higher = more sensitive (stronger viability decrease); extreme values may be limits of the assay; conditions: BLU9931 100 nM; 72 h
Outline: (§1)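 Drug sensitivity scores come from a weighted area under a four-parameter logistic fit to percent viability, normalised per plate to control wells. Viability was based on cellular ATP read with CellTiterGlo 2.0 after 72 h at 37 °C, 5% CO2. Each 384-well plate carried FIMM Oncology set compounds in singlicate at five 10-fold dilutions, with 2000 MDA-MB-453 cells per well in medium with or without an FGFR4 inhibitor at 100 nM final.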

[2] = tested on: MDA-MB-453; test: drug sensitivity score (DSS), single agent (DSS (weighted AUC score)); higher = more sensitive (stronger viability decrease); extreme values may be limits of the assay; conditions: BLU9931 0 nM; 72 h
Outline: as §1

SMILES | drug sensitivity score [1] | drug sensitivity score [2]
CC[C@@H]1C(=O)N(C)c2cnc(Nc3ccc(C(=O)NC4CCN(C)CC4)cc3OC)nc2N1C1CCCC1 [BI 2536] | 9.2 | 10.4
COc1c(C)cnc(Cn2cnc3c(Cl)nc(N)nc32)c1C [BIIB021] | 20.1 | 19.5
CC1(C)C(C(=O)Nc2ccc(S(=O)(=O)c3ccc(NC(=O)C4C(C)(C)C4(C)C)cc3)cc2)C1(C)C [BRD7116] | 3.9 | 4.5
O=C(Nc1cccc(Nc2ncc(Br)c(NCCc3cnc[nH]3)n2)c1)N1CCCC1 [BX-912] | 3.8 | 4.5
Cc1ccc(NC(=O)c2ccc(CN3CC[C@H](N(C)C)C3)c(C(F)(F)F)c2)cc1Nc1nccc(-c2cncnc2)n1 [Bafetinib] | 0 | 0
CCS(=O)(=O)N1CC(CC#N)(n2cc(-c3ncnc4[nH]ccc34)cn2)C1 [Baricitinib] | 0 | 0
O=C(/C=C/c1cccc(S(=O)(=O)Nc2ccccc2)c1)NO [Belinostat] | 20.2 | 21.3
N#CC(c1ccnc(OCc2ccc(CN3CCOCC3)cc2)n1)c1nc2ccccc2s1 (stereo unspecified) [Bentamapimod] | 1.3 | 2.6
C=C(c1ccc(C(=O)O)cc1)c1cc2c(cc1C)C(C)(C)CCC2(C)C [Bexarotene] | 0 | 0
CC(O)(CS(=O)(=O)c1ccc(F)cc1)C(=O)Nc1ccc(C#N)c(C(F)(F)F)c1 (stereo unspecified) [Bicalutamide] | 2.3 | 2.3
CCNC(=O)CCC/C=C\C[C@@H]1[C@@H](/C=C/[C@@H](O)CCc2ccccc2)[C@H](O)C[C@@H]1O [Bimatoprost] | 0 | 0
Cn1cnc2c(F)c(Nc3ccc(Br)cc3F)c(C(=O)NOCCO)cc21 [Binimetinib] | 0.2 | 0
Cc1sc2c(c1C)C(c1ccc(Cl)cc1)=N[C@@H](CC(=O)Nc1ccc(O)cc1)c1nnc(C)n1-2 [Birabresib] | 15.2 | 15.2
CC[C@H](NC(=O)[C@H](C)NC)C(=O)N1C[C@@H](O)C[C@H]1Cc1c(-c2[nH]c3cc(F)ccc3c2C[C@@H]2C[C@H](O)CN2C(=O)[C@H](CC)NC(=O)[C@H](C)NC)[nH]c2cc(F)ccc12 [Birinapant] | 15.8 | 10.1
Cc1c(N)nc([C@H](CC(N)=O)NC[C@H](N)C(N)=O)nc1C(=O)N[C@H](C(=O)N[C@H](C)[C@@H](O)[C@H](C)C(=O)N[C@H](C(=O)NCCc1nc(-c2nc(C(=O)NCCC[S+](C)C)cs2)cs1)[C@@H](C)O)[C@@H](OC1OC(CO)C(O)C(O)C1OC1OC(CO)C(O)C(OC(N)=O)C1O)c1cnc[nH]1 (stereo partly specified) [Bleomycin] | 0 | 0
CC(C)C[C@H](NC(=O)[C@H](Cc1ccccc1)NC(=O)c1cnccn1)B(O)O [Bortezomib] | 20.1 | 21.3
COc1cc(Nc2c(C#N)cnc3cc(OCCCN4CCN(C)CC4)c(OC)cc23)c(Cl)cc1Cl [Bosutinib] | 4.6 | 5
COc1cc(N2CCC(N3CCN(C)CC3)CC2)ccc1Nc1ncc(Cl)c(Nc2ccccc2P(C)(C)=O)n1 [Brigatinib] | 2 | 2.4
Cc1cc2c(F)c(Oc3ncnn4cc(OC[C@@H](C)O)c(C)c34)ccc2[nH]1 [Brivanib] | 0 | 0
CCC/C=C/C=C/C(=O)O[C@H]1/C(=C/C(=O)OC)C[C@H]2C[C@H]([C@@H](C)O)OC(=O)C[C@H](O)C[C@@H]3C[C@H](OC(C)=O)C(C)(C)[C@](O)(C[C@@H]4C/C(=C/C(=O)OC)C[C@H](/C=C/C(C)(C)[C@]1(O)O2)O4)O3 [Bryostatin 1] | 2.3 | 7.9
Nc1cc(C(F)(F)F)c(-c2cc(N3CCOCC3)nc(N3CCOCC3)n2)cn1 [Buparlisib] | 11.9 | 11.3
Cc1nc2cccc(N)c2c(=O)n1C1CCC(=O)NC1=O (stereo unspecified) [CC122] | 0 | 0
CCN1C(=O)CNc2ncc(-c3ccc(-c4nc[nH]n4)nc3C)nc21 [CC-115] | 12.5 | 12.2
CO[C@H]1CC[C@H](N2C(=O)CNc3ncc(-c4ccc(C(C)(C)O)nc4)nc32)CC1 [CC-223] | 6 | 6.1
COc1cc(C)[nH]c(=O)c1CNC(=O)c1c(C)n([C@H](C)C2CCOCC2)c2ccccc12 [CPI-360] | 0 | 0
Cc1noc2c1-c1ccccc1C(c1ccc(Cl)cc1)=N[C@H]2CC(N)=O [CPI-0610] | 10 | 9.4
O=C(O)CCCCC(CCSCc1ccccc1)SCc1ccccc1 (stereo unspecified) [CPI-613] | 0 | 0

SMILES | drug sensitivity score [1] | drug sensitivity score [2]
CN(C)c1cc2c(cc1Sc1nc3c(N)nccc3n1CCNCC(C)(C)C)OCO2 [CUDC-305] | 15.9 | 17.6
COc1ccc(-c2nc(N3CCOCC3)c3sc(CN(C)c4ncc(C(=O)NO)cn4)cc3n2)cn1 [CUDC-907] | 40 | 38.8
CO[C@H]1C(=O)[C@]2(C)[C@@H](OC)C[C@H]3OC[C@@]3(OC(C)=O)[C@H]2[C@H](OC(=O)c2ccccc2)[C@]2(O)C[C@H](OC(=O)[C@H](O)[C@@H](NC(=O)OC(C)(C)C)c3ccccc3)C(C)=C1C2(C)C [Cabazitaxel] | 8.8 | 14.6
COc1cc2nccc(Oc3ccc(NC(=O)C4(C(=O)Nc5ccc(F)cc5)CC4)cc3)c2cc1OC [Cabozantinib] | 1.6 | 1.3
C=CC(=O)Nc1cc2c(Nc3ccc(F)c(Cl)c3)ncnc2cc1OCCCN1CCOCC1 [Canertinib] | 17.8 | 15.5
CCCCCOC(=O)Nc1nc(=O)n([C@@H]2O[C@H](C)[C@@H](O)[C@H]2O)cc1F [Capecitabine] | 0.2 | 2.3
CNC(=O)c1ccc(-c2cnc3ncc(Cc4ccc5ncccc5c4)n3n2)cc1F [Capmatinib] | 0 | 0
O=C(O)C1(C(=O)O)CCC1.[NH2-].[NH2-].[Pt+2] [Carboplatin] | 2.6 | 2.2
CC(C)C[C@H](NC(=O)[C@H](CCc1ccccc1)NC(=O)CN1CCOCC1)C(=O)N[C@@H](Cc1ccccc1)C(=O)N[C@@H](CC(C)C)C(=O)[C@@]1(C)CO1 [Carfilzomib] | 22.9 | 24.5
COc1cc2c(Oc3ccc4[nH]c(C)cc4c3F)ncnc2cc1OCCCN1CCCC1 [Cediranib] | 0 | 0
Cc1ccc(-c2cc(C(F)(F)F)nn2-c2ccc(S(N)(=O)=O)cc2)cc1 [Celecoxib] | 0 | 0.4
CCS(=O)(=O)N1CCN(c2ccc(Nc3ncc(C(N)=O)c(NC4CC4)n3)cc2)CC1 [Cerdulatinib] | 0.3 | 4.4
Cc1cc(Nc2ncc(Cl)c(Nc3ccccc3S(=O)(=O)C(C)C)n2)c(OC(C)C)cc1C1CCNCC1 [Ceritinib] | 1.9 | 1.8
CCN(CC)CCCC(C)Nc1ccnc2cc(Cl)ccc12 (stereo unspecified) [Chloroquine] | 7 | 7.6
CC(C)[C@H]1C(=O)N[C@@H](CCCNC(=N)N)C(=O)NCC(=O)N[C@@H](CC(=O)O)C(=O)N[C@H](Cc2ccccc2)C(=O)N1C [Cilengitide] | 0 | 0
N.N.[Cl][Pt][Cl] [Cisplatin] | 6.5 | 6.5
Nc1nc(Cl)nc2c1ncn2[C@H]1C[C@H](O)[C@@H](CO)O1 [Cladribine] | 0 | 0
Nc1nc(Cl)nc2c1ncn2[C@@H]1O[C@H](CO)[C@@H](O)[C@@H]1F [Clofarabine] | 3.9 | 4.4
CCN(CC)CCOc1ccc(C(=C(Cl)c2ccccc2)c2ccccc2)cc1 [Clomifene] | 4 | 5.8
O=C(c1ccc(F)c(F)c1Nc1ccc(I)cc1F)N1CC(O)([C@@H]2CCCCN2)C1 [Cobimetinib] | 0.3 | 1.7
COc1c(OCCCN2CCOCC2)ccc2c1N=C(NC(=O)c1cnc(N)nc1)N1CCN=C21 [Copanlisib] | 23.4 | 22.4
CC1(COc2ccc3c(c2)ncn3-c2ccc3cccc(N4CCC(N)CC4)c3n2)COC1 [Crenolanib] | 6.5 | 7.5
C[C@@H](Oc1cc(-c2cnn(C3CCNCC3)c2)cnc1N)c1c(Cl)ccc(F)c1Cl [Crizotinib] | 0 | 0
Nc1ccn([C@@H]2O[C@H](CO)[C@@H](O)[C@@H]2O)c(=O)n1 [Cytarabine] | 0.1 | 0.8
CC(C)(C)c1nc(-c2cccc(NS(=O)(=O)c3c(F)cccc3F)c2F)c(-c2ccnc(N)n2)s1 [Dabrafenib] | 0.4 | 1.5
COc1cc2ncnc(Nc3ccc(F)c(Cl)c3)c2cc1NC(=O)/C=C/CN1CCCCC1 [Dacomitinib] | 8.6 | 7.3
